Test results published in ChEMBL document CHEMBL1201862, “PubChem BioAssay data set” (2004).
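Where inhibition never reached the appropriate level, the endpoint shown equals the highest concentration tested. Otherwise, values were interpolated linearly from a five-concentration, 48-hour dose response in 96-well plates. GI50: concentration for 50% inhibition of growth.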 Activity calls are given as the source filed them. No stated cut-off is given here; in the data, active = GI50 up to about 1.1 µM and inactive = higher.

How the values were obtained:
Experiment in all cases: NCI tumour cell line growth inhibition, 48 h
Hs-578T = system: Hs-578T
EKVX = system: EKVX
OVCAR-3 = system: OVCAR-3
OVCAR-8 = system: OVCAR-8
IGROV-1 = system: IGROV-1
HOP-62 = system: HOP-62
MDA-N = system: MDA-N
MCF7 = system: MCF7
Malme-3M = system: Malme-3M
M14 = system: M14
A549 = system: A549
OVCAR-4 = system: OVCAR-4
NCI-H226 = system: NCI-H226
U-251 = system: U-251
RPMI-8226 = system: RPMI-8226
SK-MEL-5 = system: SK-MEL-5
TK-10 = system: TK-10
SW-620 = system: SW-620
UACC-62 = system: UACC-62
SK-MEL-28 = system: SK-MEL-28
UO-31 = system: UO-31
HCC 2998 = system: HCC 2998
LOX IMVI = system: LOX IMVI
NCI-H460 = system: NCI-H460
UACC-257 = system: UACC-257
SK-OV-3 = system: SK-OV-3
HCT-15 = system: HCT-15
PC-3 = system: PC-3
OVCAR-5 = system: OVCAR-5
SN12C = system: SN12C
SK-MEL-2 = system: SK-MEL-2
K562 = system: K562
ACHN = system: ACHN
SF-295 = system: SF-295
NCI-H23 = system: NCI-H23
CCRF-CEM = system: CCRF-CEM
SR = system: SR
HT-29 = system: HT-29
MDA-MB-231 = system: MDA-MB-231
CAKI-1 = system: CAKI-1
HL-60 = system: HL-60
NCI/ADR-RES = system: NCI/ADR-RES
MDA-MB-435 = system: MDA-MB-435
COLO 205 = system: COLO 205
BT-549 = system: BT-549
RXF 393 = system: RXF 393
NCI-H522 = system: NCI-H522
KM12 = system: KM12
786-0 = system: 786-0
HCT-116 = system: HCT-116
T47D = system: T47D
SNB-75 = system: SNB-75
SNB-19 = system: SNB-19
DU-145 = system: DU-145
MOLT-4 = system: MOLT-4
SF-268 = system: SF-268

Which GI50 (Hs-578T) does the source give for `CCC1(CC)C(=O)NN(C(=O)c2ccc(Cl)cc2)C1=O` here?
Its GI50 is > 100 µM (inactive).

And the GI50 (EKVX)?
Its GI50 is > 100 µM (inactive).

What about the GI50 (OVCAR-3) of the same compound?
The GI50 was > 100 µM (inactive).

And the GI50 (OVCAR-8)?
The GI50 was > 100 µM (inactive).

And the GI50 (IGROV-1)?
Its GI50 is > 100 µM (inactive).

What about the GI50 (HOP-62) of the same compound?
Its GI50 is > 100 µM (inactive).

What about the GI50 (MDA-N) of the same compound?
Its GI50 is > 100 µM (inactive).

What about the GI50 (MCF7) of the same compound?
The GI50 was > 100 µM (inactive).

And the GI50 (Malme-3M)?
The GI50 was 0.23 µM (active).

What about the GI50 (M14) of the same compound?
Its GI50 is > 100 µM (inactive).

And the GI50 (A549)?
The GI50 was > 100 µM (inactive).

What about the GI50 (OVCAR-4) of the same compound?
The GI50 was > 100 µM (inactive).

And the GI50 (NCI-H226)?
Its GI50 is > 100 µM (inactive).

What about the GI50 (U-251) of the same compound?
Its GI50 is > 100 µM (inactive).

What about the GI50 (RPMI-8226) of the same compound?
Its GI50 is > 100 µM (inactive).

And the GI50 (SK-MEL-5)?
Its GI50 is > 100 µM (inactive).

And the GI50 (TK-10)?
The GI50 was > 100 µM (inactive).

What about the GI50 (SW-620) of the same compound?
Its GI50 is > 100 µM (inactive).

What about the GI50 (UACC-62) of the same compound?
Its GI50 is > 100 µM (inactive).

And the GI50 (SK-MEL-28)?
The GI50 was > 100 µM (inactive).

And the GI50 (UO-31)?
Its GI50 is > 100 µM (inactive).

And the GI50 (HCC 2998)?
Its GI50 is > 100 µM (inactive).

And the GI50 (LOX IMVI)?
Its GI50 is > 100 µM (inactive).

And the GI50 (NCI-H460)?
Its GI50 is > 100 µM (inactive).

What about the GI50 (UACC-257) of the same compound?
The GI50 was > 100 µM (inactive).

And the GI50 (SK-OV-3)?
Its GI50 is > 100 µM (inactive).

What about the GI50 (HCT-15) of the same compound?
Its GI50 is greater than 100 µM.

And the GI50 (PC-3)?
Its GI50 is > 100 µM (inactive).

What about the GI50 (OVCAR-5) of the same compound?
Its GI50 is > 100 µM (inactive).

What about the GI50 (SN12C) of the same compound?
The GI50 was > 100 µM (inactive).

What about the GI50 (SK-MEL-2) of the same compound?
The GI50 was > 100 µM (inactive).

And the GI50 (K562)?
The GI50 was > 100 µM (inactive).

And the GI50 (ACHN)?
The GI50 was > 100 µM (inactive).

What about the GI50 (SF-295) of the same compound?
Its GI50 is > 100 µM (inactive).

What about the GI50 (NCI-H23) of the same compound?
Its GI50 is > 100 µM (inactive).

What about the GI50 (CCRF-CEM) of the same compound?
Its GI50 is > 100 µM (inactive).

What about the GI50 (SR) of the same compound?
Its GI50 is > 100 µM (inactive).

What about the GI50 (HT-29) of the same compound?
The GI50 was > 100 µM (inactive).

And the GI50 (MDA-MB-231)?
The GI50 was > 100 µM (inactive).

And the GI50 (CAKI-1)?
Its GI50 is > 100 µM (inactive).

What about the GI50 (HL-60) of the same compound?
Its GI50 is > 100 µM (inactive).

What about the GI50 (NCI/ADR-RES) of the same compound?
The GI50 was > 100 µM (inactive).

And the GI50 (MDA-MB-435)?
The GI50 was > 100 µM (inactive).

And the GI50 (COLO 205)?
The GI50 was > 100 µM (inactive).

And the GI50 (BT-549)?
Its GI50 is > 100 µM (inactive).

What about the GI50 (RXF 393) of the same compound?
Its GI50 is > 100 µM (inactive).

What about the GI50 (NCI-H522) of the same compound?
Its GI50 is 32.1 µM (inactive).

What about the GI50 (KM12) of the same compound?
The GI50 was > 100 µM (inactive).

And the GI50 (786-0)?
Its GI50 is > 100 µM (inactive).

And the GI50 (HCT-116)?
Its GI50 is > 100 µM (inactive).

And the GI50 (T47D)?
Its GI50 is > 100 µM (inactive).

What about the GI50 (SNB-75) of the same compound?
The GI50 was > 100 µM (inactive).

And the GI50 (SNB-19)?
The GI50 was > 100 µM (inactive).

What about the GI50 (DU-145) of the same compound?
Its GI50 is > 100 µM (inactive).

What about the GI50 (MOLT-4) of the same compound?
Its GI50 is > 100 µM (inactive).

And the GI50 (SF-268)?
The GI50 was > 100 µM (inactive).
